In patent US10658848B2, “Materials for use with aqueous redox flow batteries and related methods and systems” (Massachusetts Institute of Technology, priority 2014, dated 2020):

Assay: Quantitative CV and rotating disk voltammetry with numerical fitting (Randles-Sevcik, Levich)
Format: physicochemical
Conditions: for DO, diffusion coefficient for quinoxaline / DR, diffusion coefficient for the reduced species / α, transfer coefficient for the reduction (forward) reaction: 295 K; for number of electrons transferred, n: ± 95% confidence interval
From the text: A set of quantitative experiments were designed to calculate the number of electrons transferred, diffusion coefficients, and transfer coefficients using the Randles-Sevcik equation for irreversible CVs (Eq. (E1)) and the Levich equation (Eq. (E2)). In Eq. (E1), ip is the peak current, n is the number of electrons transferred, α is the transfer coefficient, A is the electrode surface area, F is Faraday's constant, C is the reactant concentration, s is the scan rate, R is the universal gas constant, T is temperature, and D is the diffusion coefficient (e.g., see Compton et al. Understanding Voltammetry, 2nd ed., Imperial College Press, London, 2011). Additionally, in Eq. (E2), iL is the RDV limiting current, ω is the electrode rotation rate, and v is the kinematic viscosity (e.g., see Bard et al. Electrochemical Methods: Fundamentals and Applications, John Wiley & Sons, Danvers, 2001). Kinematic viscosities were determined from dynamic viscosities, which were interpolated from tables by Zaytsev and […] et al. Properties of Aqueous Solutions of Electrolytes, 1st ed., CRC Press, Boca Raton, 1992), and electrolyte densities, which were measured using a balance and known solution volume. All remaining variables are constants or were determined by the experimental design. Quantitative CV and RDV experiments were carried out in a water-jacketed three-electrode cell. Chilled water at a temperature of 295 K (22° C.) was continuously passed through the water jacket in order to maintain a constant temperature throughout the experiment. A rotating disk electrode with a 0.5 cm diameter glassy carbon electrode (0.196 cm^2) was used as a working electrode. A coiled Pt wire used as a counter electrode was housed in a glass compartment that was separated from the main chamber by a porous frit. Both chambers were filled with the same bulk electrolyte. The reference electrode was a double junction Ag/AgCl (10% KNO3), which had been calibrated against a commercially available reversible hydrogen electrode (BAS Inc.) in 1 M NaHCO3 solution by measuring OCV between the two electrodes. All cell components were purchased from Pine Instruments Co., including the rotator and motor used in RDV experiments. Cells were filled with 80 mL of solution, and the solution was bubbled with argon using a porous glass frit at a rate of 50 mL/min for 1 h before taking any electrochemical measurements. After 1 h, the argon gas bubbling stream was switched to an argon gas blanket above the solution. Three cycles of CV, with a stationary electrode, were recorded at each of the following scan rates: 5, 10, 20, 50, and 100 mV/s. Between CV and RDV experiments, the glassy carbon electrode was re-polished before beginning RDV experiments. […] Quantitative voltammetry experiments were performed in triplicate using freshly prepared solution and freshly polished glassy carbon electrodes for each trial. CV experiments were performed at five different scan rates, and RDV experiments were performed at five different rotation speeds for each electrolyte of interest. The aim of these experiments was to determine the number of electrons transferred during a quinoxaline redox reaction, the diffusion coefficients of quinoxaline and its reduced species in each electrolyte, and the transfer coefficients of the redox reactions. FIG. 5a-e and FIG. 6a-e display the third cycle of typical CV data at different scan rates and the second cathodic scan of typical RDV data at different rotation rates, respectively. In order to quantitatively determine the number of electrons transferred, a numerical fitting technique was employed. Among the irreversible Randles-Sevcik (Eq. (E1)) and Levich (Eq. (E2)) equations, there are four unknown variables: the number of electrons transferred, n, two diffusion coefficients, DO/DR, and the transfer coefficient, α. […]

[1] = 0.45M K2SO4/0.1M KOH, pH 12.9, n=2 fixed
[2] = 0.495M K2SO4/0.01M KOH, pH 11.8, n=2 fixed
[3] = 0.9M KCl/0.1M KOH, pH 12.9, n=2 fixed
[4] = 0.99M KCl/0.01M KOH, pH 11.8, n=2 fixed

- DO, diffusion coefficient for quinoxaline [1]: 7.3 ± 1.7 10^−6 cm^2/s
- DR, diffusion coefficient for the reduced species [1]: 4.4 ± 0.4 10^−6 cm^2/s
- α, transfer coefficient for the reduction (forward) reaction [1]: 0.60 ± 0.00
- number of electrons transferred, n (0.45M K2SO4/0.1M KOH, pH 12.9): 2.54 ± 0.43
- DO, diffusion coefficient for quinoxaline [2]: 6.4 ± 0.7 10^−6 cm^2/s
- DR, diffusion coefficient for the reduced species [2]: 4.8 ± 1.0 10^−6 cm^2/s
- α, transfer coefficient for the reduction (forward) reaction [2]: 0.59 ± 0.00
- number of electrons transferred, n (0.495M K2SO4/0.01M KOH, pH 11.8): 2.26 ± 0.33
- DO, diffusion coefficient for quinoxaline [3]: 6.7 ± 0.4 10^−6 cm^2/s
- DR, diffusion coefficient for the reduced species [3]: 5.9 ± 1.0 10^−6 cm^2/s
- α, transfer coefficient for the reduction (forward) reaction [3]: 0.62 ± 0.02
- number of electrons transferred, n (0.9M KCl/0.1M KOH, pH 12.9): 2.90 ± 0.03
- DO, diffusion coefficient for quinoxaline [4]: 6.0 ± 0.6 10^−6 cm^2/s
- DR, diffusion coefficient for the reduced species [4]: 4.9 ± 2.2 10^−6 cm^2/s
- α, transfer coefficient for the reduction (forward) reaction [4]: 0.59 ± 0.04
- number of electrons transferred, n (0.99M KCl/0.01M KOH, pH 11.8): 1.89 ± 0.21
- DO, diffusion coefficient for quinoxaline (1M KOH, pH 13.7, n=2 fixed): 5.8 ± 0.9 10^−6 cm^2/s
- DR, diffusion coefficient for the reduced species (1M KOH, pH 13.7, n=2 fixed): 4.0 ± 1.7 10^−6 cm^2/s
- α, transfer coefficient for the reduction (forward) reaction (1M KOH, pH 13.7, n=2 fixed): 0.60 ± 0.05
- number of electrons transferred, n (1M KOH, pH 13.7): 2.34 ± 0.72
- diffusion coefficient of quinoxaline relative to the reduced species (in each electrolyte of Table E3): 1.1-1.7 ×
- mean calculated value for n (navg) (mean over the electrolytes in Table E2): 2.34
- transfer coefficient α for the forward reaction (overall, n=2 fixed): ≈ 0.6
- number of electrons transferred, n, rounded to nearest integer (rounded from navg): 2
- theoretical capacity (two-electron transfer process): 410 mAh/g
Compound: c1ccc2nccnc2c1 [quinoxaline]
